From US8796313B2, “Substituted dihydroisoindolones as allosteric modulators of glucokinase” (Janssen Pharmaceutica N.V., priority 2005, dated 2014)

Target: T1, human pancreas Glucokinase (GK) (Homo sapiens, UniProt P35557)
T1 construct: His6; made in house; host or cells: Escherichia coli
T1 sequence (P35557 1-465): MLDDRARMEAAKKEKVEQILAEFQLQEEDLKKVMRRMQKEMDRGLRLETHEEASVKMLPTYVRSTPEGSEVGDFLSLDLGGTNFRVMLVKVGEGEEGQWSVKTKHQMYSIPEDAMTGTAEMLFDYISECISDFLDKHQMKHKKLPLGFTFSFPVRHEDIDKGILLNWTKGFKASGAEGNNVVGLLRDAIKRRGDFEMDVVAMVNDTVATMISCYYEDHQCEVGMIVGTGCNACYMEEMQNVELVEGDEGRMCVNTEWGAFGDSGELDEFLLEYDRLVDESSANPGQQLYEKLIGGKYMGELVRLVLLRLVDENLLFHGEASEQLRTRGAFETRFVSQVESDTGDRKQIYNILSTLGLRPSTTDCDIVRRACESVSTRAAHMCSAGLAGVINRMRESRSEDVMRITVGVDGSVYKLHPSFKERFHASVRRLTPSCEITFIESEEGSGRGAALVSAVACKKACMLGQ
Assay: Glucokinase enzyme assay, pancreas GK
Type: biochemical
Settings: for activation at 50 µM: increase in GK activity above vehicle control, compound 50 μM, 12 mM glucose; for EC50: concentration that produces 50% activation above vehicle control; for EC100%: concentration that produces 100% activation above vehicle control
Excerpt: An enzymatic Glucokinase (GK) assay using purified recombinant human liver/pancreas enzyme was used to evaluate the effects of potential small molecule modulators.
In this assay, GK catalyzes glucose phosphorylation in the presence of ATP. The product of this reaction, glucose-6-phosphate, was then oxidized by an excess of glucose-6-phosphate dehydrogenase to produce gluconate-6-phosphate with concomitant reduction of nicotinamide adenine dinucleotide (NAD). […] Human GK (Liver/Pancreas) was expressed in Escherichia coli as a (His) 6-tagged fusion protein and was purified by metal chelate affinity chromatography. The assay was performed in a final incubation volume of 80 μl in a 96-well clear low UV absorption plates. The incubation mixture consisted of 25 mM HEPES, 2 mM MgSO4, 1 mM dithiothreotol (DTT), 1 mg/mL bovine serum albumin (BSA), 1 mM ATP, 1 mM NAD, and 12 mM glucose, 10 units per mL glucose-6-phosphate dehydrogenase, and +/−300 ng per mL GK. For determination of the affinity (Km) and Vmax, different concentrations of glucose ranging from 0.5 mM to 40 mM were used in the assay; see Grimsby, J., Sarabu, R.; Grippo, J. F.; et. al. Science 2003, 301, 370-373. […] EC50% (μM) was calculated as the effective concentration of the compound that produces 50% activation above the vehicle control, and EC100% (μM) was calculated as the effective concentration of the compound that produces 100% activation above the vehicle control.

SMILES	activation at 50 µM [%]	EC50 [nM]	EC100% [µM]
O=C(CC1c2ccccc2C(=O)N1Cc1ccc(F)cc1)Nc1ccc(C(=O)O)cn1 (stereo not drawn) [Compound 6, 6-{2-[2-(4-Fluoro-benzyl)-3-oxo-2,3-dihydro-1H-isoindol-1-yl]-acetylamino}-nicotinic acid]	7.92		
O=C(CCC1c2ccccc2C(=O)N1Cc1ccc(F)cc1)Nc1ccc(C(=O)O)cn1 (stereo not drawn) [Compound 7, 6-{3-[2-(4-Fluoro-benzyl)-3-oxo-2,3-dihydro-1H-isoindol-1-yl]-propionylamino}-nicotinic acid]	153	3900	15
COc1ccc(CN2C(=O)c3ccccc3C2CCC(=O)Nc2ccc(C(=O)O)cn2)cc1 (stereo not drawn) [Compound 8, 6-{3-[2-(4-Methoxy-benzyl)-3-oxo-2,3-dihydro-1H-isoindol-1-yl]-propionylamino}-nicotinic acid]	167	3200	11
COC(=O)c1ccc(NC(=O)CCC2c3ccccc3C(=O)N2Cc2ccc(OC)cc2)nc1 (stereo not drawn) [Compound 9, 6-{3-[2-(4-Methoxy-benzyl)-3-oxo-2,3-dihydro-1H-isoindol-1-yl]-propionylamino}-nicotinic acid methyl ester]	172	400	1.7
COc1ccc(CN2C(=O)c3ccccc3C2CCS(=O)(=O)Nc2nccs2)cc1 (stereo not drawn) [Compound 10, 2-[2-(4-Methoxy-benzyl)-3-oxo-2,3-dihydro-1H-isoindol-1-yl]-ethanesulfonic acid thiazol-2-ylamide]	15.8		
O=C(CCC1c2c(F)cccc2C(=O)N1Cc1ccc(F)cc1)Nc1ccc(C(=O)O)cn1 (stereo not drawn) [Compound 11, 6-{3-[7-Fluoro-2-(4-fluoro-benzyl)-3-oxo-2,3-dihydro-1H-isoindol-1-yl]-propionylamino}-nicotinic acid]	229	67	0.128
O=C(CCC1c2c(F)cccc2C(=O)N1Cc1ccc(F)cc1)Nc1ccccn1 (stereo not drawn) [Compound 12, 3-[7-Fluoro-2-(4-fluoro-benzyl)-3-oxo-2,3-dihydro-1H-isoindol-1-yl]-N-pyridin-2-vi-propionamide]	179	94	0.74
O=C(CCC1c2c(F)cccc2C(=O)N1Cc1ccc(F)cc1)Nc1cnccn1 (stereo not drawn) [Compound 13, 3-[7-Fluoro-2-(4-fluoro-benzyl)-3-oxo-2,3-dihydro-1H-isoindol-1-yl]-N-pyrazin-2-yl-propionamide]	272	240	0.88
O=C(CCC1c2c(F)cccc2C(=O)N1Cc1ccc(F)cc1)Nc1ccc(F)cn1 (stereo not drawn) [Compound 14, 3-[7-Fluoro-2-(4-fluoro-benzyl)-3-oxo-2,3-dihydro-1H-isoindol-1-yl]-N-(5-fluoro-pyridin-2-yl)-propionamide]	219	108	0.699
O=C(CCC1c2cccc(F)c2C(=O)N1Cc1ccc(F)cc1)Nc1ccc(C(=O)O)cn1 (stereo not drawn) [Compound 15, 6-{3-[4-Fluoro-2-(4-fluoro-benzyl)-3-oxo-2,3-dihydro-1H-isoindol-1-yl]-propionylamino}-nicotinic acid]	188	530	3.4
O=C(Nc1ccccn1)OCCC1c2c(F)cccc2C(=O)N1Cc1ccc(F)cc1 (stereo not drawn) [Compound 16, Pyridin-2-yl-carbamic acid 2-[7-fluoro-2-(4-fluoro-benzyl)-3-oxo-2,3-dihydro-1H-isoindol-1-yl]-ethyl ester]	13.8		
O=C(Nc1ccccn1)OCCC1c2cccc(F)c2C(=O)N1Cc1ccc(F)cc1 (stereo not drawn) [Compound 17, Pyridin-2-yl-carbamic acid 2-[4-fluoro-2-(4-fluoro-benzyl)-3-oxo-2,3-dihydro-1H-isoindol-1-yl]-ethyl ester]	23.8		
O=C(CCC1c2c(F)ccc(F)c2C(=O)N1Cc1ccc(F)cc1)Nc1ccc(C(F)(F)F)cn1 (stereo not drawn) [Compound 18, 3-[4,7-Difluoro-2-(4-fluoro-benzyl)-3-oxo-2,3-dihydro-1H-isoindol-1-yl]-N-(5-trifluoromethyl-pyridin-2-yl)-propionamide]	95	2000	46

Next, values leading:

activation at 50 µM [%]	EC50 [nM]	EC100% [µM]	SMILES
115	4800	70	COc1ccc(CN2C(=O)c3ccccc3C2COC(=O)Nc2ccccn2)cc1 (stereo not drawn) [Compound 19, Pyridin-2-yl-carbamic acid 2-(4-methoxy-benzyl)-3-oxo-2,3-dihydro-1H-isoindol-1-ylmethyl ester]
302	203	0.65	O=C(CCC1c2c(F)ccc(F)c2C(=O)N1Cc1ccc(F)cc1)Nc1ccc(C(=O)O)cn1 (stereo not drawn) [Compound 20, 6-{3-[4,7-Difluoro-2-(4-fluoro-benzyl)-3-oxo-2,3-dihydro-1H-isoindol-1-yl]-propionylamino}-nicotinic acid]
94.4	3100	26.6	CCOC(=O)c1csc(NC(=O)CCC2c3c(F)ccc(F)c3C(=O)N2Cc2ccc(F)cc2)n1 (stereo not drawn) [Compound 21, 2-{3-[4,7-Difluoro-2-(4-fluoro-benzyl)-3-oxo-2,3-dihydro-1H-isoindol-1-yl]-propionylamino}thiazole-4-carboxylic acid ethyl ester]
73.7	21000	188	O=C(O)Cc1csc(NC(=O)CCC2c3c(F)ccc(F)c3C(=O)N2Cc2ccc(F)cc2)n1 (stereo not drawn) [Compound 22, (2-{3-[4,7-Difluoro-2-(4-fluoro-benzyl)-3-oxo-2,3-dihydro-1H-isoindol-1-yl]-propionylamino}-thiazol-4-yl)-acetic acid]
30.6			CCOC(=O)c1ccnc(NC(=O)CCC2c3c(F)cccc3C(=O)N2Cc2ccc(F)cc2)c1 (stereo not drawn) [Compound 23, 2-{3-[7-Fluoro-2-(4-fluoro-benzyl)-3-oxo-2,3-dihydro-1H-isoindol-1-yl]-propionylamino}-isonicotinic acid ethyl ester]
4.39			COc1ccc(CN2C(=O)c3ccccc3C2CNC(=O)Nc2ccccn2)cc1 (stereo not drawn) [Compound 24, 1-[2-(4-Methoxy-benzyl)-3-oxo-2,3-dihydro-1H-isoindol-1-ylmethyl]-3-pyridin-2-yl-urea]
72.5			O=C(CCC1c2c(F)ccc(F)c2C(=O)N1Cc1ccc(F)cc1)Nc1nc(C(=O)O)cs1 (stereo not drawn) [Compound 25, 2-{3-[4,7-Difluoro-2-(4-fluoro-benzyl)-3-oxo-2,3-dihydro-1H-isoindol-1-yl]-propionylamino}-thiazole-4-carboxylic acid]
173	25	0.46	COC(=O)c1ccc(NC(=O)CCC2c3c(F)cccc3C(=O)N2Cc2ccc(F)cc2)nc1 (stereo not drawn) [Compound 26, 6-{3-[7-Fluoro-2-(4-fluoro-benzyl)-3-oxo-2,3-dihydro-1H-isoindol-1-yl]-propionylamino}-nicotinic acid methyl ester]
65	40000		O=C(CCC1c2c(F)cccc2C(=O)N1Cc1ccc(F)cc1)Nc1ncc(Br)s1 (stereo not drawn) [Compound 27, N-(5-Bromo-thiazol-2-yl)-3-[7-fluoro-2-(4-fluoro-benzyl)-3-oxo-2,3-dihydro-1H-isoindol-1-yl]-propionamide]
120	130	6.3	O=C(CCC1c2c(F)cccc2C(=O)N1Cc1ccc(F)cc1)Nc1ccc2ccccc2n1 (stereo not drawn) [Compound 28, 3-[7-Fluoro-2-(4-fluoro-benzyl)-3-oxo-2,3-dihydro-1H-isoindol-1-yl]-N-quinolin-2-yl-propionamide]
212	46	0.32	O=C(CCC1c2c(F)cccc2C(=O)N1Cc1ccc(F)cc1)Nc1cc2ccccc2cn1 (stereo not drawn) [Compound 29, 3-[7-Fluoro-2-(4-fluoro-benzyl)-3-oxo-2,3-dihydro-1H-isoindol-1-yl]-N-isoquinolin-3-yl-propionamide]
175	230	1.2	COCOCc1ccc(NC(=O)CCC2c3c(F)cccc3C(=O)N2Cc2ccc(F)cc2)nc1 (stereo not drawn) [Compound 30, 3-[7-Fluoro-2-(4-fluoro-benzyl)-3-oxo-2,3-dihydro-1H-isoindol-1-yl]-N-(5methoxymethoxymethyl-pyridin-2-yl)-propionamide]
